Legend:
Assay type in all cases: cell-based, rat
MFN2 = assay: Western blot of MFN2 in RNVCs
Procedure: (§1) FIG. 6C: MFN1 and MFN2 protein levels in RNVCs analyzed by western blotting.
(§2) The H9C2 cells and RNVCs were detached in LB containing: 50 mM Tris, 150 mM NaCl, 1 mM EDTA, 0.5% deoxycholate, 1% Triton X 100, 0.1% SDS (pH 8.0). The cells were collected and placed on ice for 30 minutes. The cells were then centrifuged at 2000 g for 20 minutes at for 4° C. The supernatant was transferred to a new tube and stored on ice. The protein concentration was determined by BCA assay. The protein samples were diluted with sample buffer (2× Laemmli, Sigma), mixed, and heated for 5 minutes at 95° C. […] The images were recorded with a gel imaging system (Bio Rad). […]
(§3) Due to the importance of mitochondria and reactive oxygen species (ROS) levels in the fate of cardiomyocyte cells, the hypothesis that the compounds could impact the mitochondrial network was explored. […] Thus, the mitochondrial network and the individual mitochondria were then analyzed using the IMARIS software.

MFN1 = assay: Western blot of MFN1 in RNVCs
Procedure: as §1, §2, §3

DRP-1 = assay: Western blot of DRP-1 phosphorylation (Ser616) in RNVCs
Procedure: FIG. 6D: Drp-1 and P-Drp-1 and MFN2 protein levels in RNVCs analyzed by western blotting. *, p<0.05, **, p<0.01, ***, p<0.001 with respect to DMSO. The experiments were reproduced 3 times. Representative western blotting images and quantification of three independent experiments are presented as mean±SEM with single-factor ANOVA, and multiple Sidak comparisons.
as §2, §3

H9C2 cells = assay: Mitochondrial morphology and abundance by transmission electron microscopy; settings: compared to DMSO; for mitochondrial number, size and morphology by transmission electron microscopy: 1 μM
Procedure: The cells were treated with a vehicle (0.01% DMSO), 1 μM digoxin, 1 μM SG6163F, 10 μM SG6163F, fixed with glutaraldehyde and analyzed by transmission electron microscopy. The cells treated with digoxin and with 10 μM SG6163F have many shorter round mitochondria compared with the control which has long thin mitochondria (FIG. 7B, FIG. 7D versus FIG. 7A).
Transmission electron microscopy. For ultrastructural analysis, the cells were fixed in 1.6% glutaraldehyde in a 0.1 M phosphate buffer, rinsed in a 0.1 M cacodylate buffer, and post-fixed for 1 h in 1% osmium tetroxide and 1% potassium ferrocyanide in a 0.1 M cacodylate buffer to improve the coloration of the membranes. The cells were rinsed in distilled water, dehydrated in alcohols and finally embedded in epoxy resin. Contrasting ultrafine sections (70 nm) were analyzed under a JEOL 1400 transmission electron microscope with a Morada Olympus CCD camera.
Due to the importance of mitochondria and reactive oxygen species (ROS) levels in the fate of cardiomyocyte cells, the hypothesis that the compounds could impact the mitochondrial network was explored. Following treatment of the RNVCs with the compounds tested, the mitochondrial network was stained with 200 nM of Mitotracker and the cell volume with 4 μM of calcein-AM. Thus, the mitochondrial network and the individual mitochondria were then analyzed using the IMARIS software.

BAX = assay: Western blot of BAX expression in RNVCs; settings: 6 h treatment
Procedure: Levels of protein expression of BCL-2 (FIG. 3A and FIG. 3B) BXL-XL (FIG. 3C) and BAX (FIG. 3C), in the RNVCs after 6 h of treatment (FIG. 3A, FIG. 3C, FIG. 3D) or 24 h (FIG. 3B). Co., untreated cell control. Each experiment was reproduced at least three times. Representative western blotting images and quantification of three independent experiments are presented as mean±SEM with single-factor ANOVA, with multiple Sidak comparisons. *, p<0.05 with respect to DMSO.
as §2

Row | Compound | expression of fusion protein MNF2 (MFN2) | expression of fusion protein MFN1 (MFN1) | phosphorylation of DRP-1 at Ser616, (DRP1-P)/(DRP-1 total) ratio (DRP-1) | mitochondrial number, size and morphology by transmission electron microscopy (H9C2 cells) | expression of pro-apoptotic BAX protein (BAX) | mitochondrial number and size by transmission electron microscopy (H9C2 cells; 10 μM)
1 | C[C@]12CC[C@H](O)C[C@H]1CC[C@@H]1[C@@H]2CC[C@]2(C)[C@@H](C3=CC(=O)OC3)CC[C@]12O [digitoxigenin] | decreased | decreased | – | – | – | –
2 | C[C@H]1O[C@@H](O[C@H]2[C@@H](O)C[C@H](O[C@H]3[C@@H](O)CC(O[C@H]4CC[C@@]5(C)[C@H](CC[C@@H]6[C@@H]5C[C@@H](O)[C@]5(C)[C@@H](C7=CC(=O)OC7)CC[C@]65O)C4)O[C@@H]3C)O[C@@H]2C)C[C@H](O)[C@@H]1O (some centres unmarked) [digoxin] | decreased | decreased | stimulated fission by phosphorylation of DRP-1 | increase in the number of mitochondria and a decrease in their size | significantly decreased | –
3 | O=C1NC(c2ccccc2)=N/C1=C\c1cc2ccccc2c2ccccc12 [SG6163F] | – | – | stimulated fission by phosphorylation of DRP-1 | did not affect the morphology of the mitochondria | significantly decreased | increase in the number of mitochondria and a decrease in their size

Reference: patent US20240226066A1, “CARDIOPROTECTION BY AUTOPHAGY INDUCTION AND METABOLIC REPROGRAMMING” (UNIVERSITE PARIS-SACLAY, priority 2021, published 2024)
